Results as given in US20070154540A1 (KMSI CO., LTD., priority 2003, published 2007).

Assays:
RAW 264.7 cells = test: LPS-induced prostaglandin E2 production of macrophages (immunoassay); assay type: cell-based, mice; settings: LPS alone 4156, non-treated 71
Method: A macrophage cell line derived from mice, RAW 264.7 (KCLB 40071), was purchased from the Korean Cell Line Bank. RAW 264.7 cells were seeded in a density of 3×10^6 cells onto 60-mm culture dishes containing DMEM (Dulbecco's Modified Eagle Medium, 12800-017, Gibco) supplemented with 10% FBS (fetal bovine serum, 26140-079, Gibco), 100 U/ml of penicillin and 100 μg/ml streptomycin (15140-122, Gibco), and cultured at 37° C. under 5% CO2 and humidity for 24 hrs. To induce NO production, RAW 264.7 cells were treated with 500 ng/ml of an E. coli cell wall component, lipopolysaccharide (LPS, […], Sigma). […] Herein, LPS was dissolved in distilled water, and apigenin was dissolved in DMSO. Then, the culture medium and a Griess reagent were mixed at a ratio of 1:1 (100 μl: 100 μl) and allowed to stand at room temperature for 10 min. Thereafter, absorbance was measured at 540 nm using a spectrophotometer (Power Wave X340, Bio-Tek). RAW 264.7 cells were treated under the same conditions as in Example 12. PGE2 levels were measured using a PGE2 immunoassay kit (DE0100, R&D Systems). 100 μl of a culture medium was allowed to react with 50 μl of a conjugate and 50 μl of an antibody in the kit for two hours, and was then allowed to react with 200 μl of a developing reagent, pNPP, for one hour. Thereafter, absorbance was measured at 405 nm using a spectrophotometer (Power Wave X340, Bio-Tek).

COX-2 = test: Western blotting of COX-2 expression in LPS-treated RAW 264.7; assay type: cell-based, mice; settings: LPS treatment = 100%, upon apigenin treatment
Method: A macrophage cell line derived from mice, RAW 264.7 (KCLB 40071), was purchased from the Korean Cell Line Bank. RAW 264.7 cells were seeded in a density of 3×10^6 cells onto 60-mm culture dishes containing DMEM (Dulbecco's Modified Eagle Medium, 12800-017, Gibco) supplemented with 10% FBS (fetal bovine serum, 26140-079, Gibco), 100 U/ml of penicillin and 100 μg/ml streptomycin (15140-122, Gibco), and cultured at 37° C. under 5% CO2 and humidity for 24 hrs. To induce NO production, RAW 264.7 cells were treated with 500 ng/ml of an E. coli cell wall component, lipopolysaccharide (LPS, L2654, Sigma). […] Herein, LPS was dissolved in distilled water, and apigenin was dissolved in DMSO. Then, the culture medium and a Griess reagent were mixed at a ratio of 1:1 (100 μl: 100 μl) and allowed to stand at room temperature for 10 min. Thereafter, absorbance was measured at 540 nm using a spectrophotometer (Power Wave X340, Bio-Tek).
RAW 264.7 cells were treated under the same conditions as in Example 12. […] Herein, for IκBα expression, the cells were treated with LSP for only two hours. […] After protein concentrations in cell lysates were measured, […] protein samples were separated on an 8-16% SDS (sodium dodecyl sulfate) polyacrylamide gel (EC60452, NOVEX). […]

[1] = test system: osteoarthritis-induced New Zealand white rabbits; test: Collagen levels in joint synovial fluids (Sirius Red staining); assay type: in vivo
Description: (§1) To prepare an osteoarthritis animal model, New Zealand white rabbits underwent anterior cruciate ligament transection (ACLT) in joints of their two hind legs. After three days, the rabbits were forced to sustain movement for four weeks in a space of 5×5 m^3 to induce substantial osteoarthritis. […] The following Examples 3 to 10 were all performed using joints of the osteoarthritis-induced New Zealand white rabbits prepared as in this Example 2.
Total collagen levels in synovial fluids were measured by Sirius Red staining (Heide T. R. et al., Histochem. […]. Then, total collagen levels were determined by measuring absorbance at 550 nm. A standard curve was obtained by measuring absorbance at 550 nm for collagen type I (C1188, Sigma) of various concentrations of 0, 100, 200, 300, 400 and 500 μg. Using the standard curve, collagen levels in synovial fluids were determined.

[2] = test system: osteoarthritis-induced New Zealand white rabbits; test: Prostaglandin E2 levels in joint synovial fluids (EIA); assay type: in vivo
Description: as §1
Using the joint synovial fluids prepared in Example 3, prostaglandin E2 (PGE2) levels in synovial fluids were measured using an enzyme immunoassay (EIA) kit (DE0100, R&D Systems). 100 μl of a 1:10 dilution of a synovial fluid sample was mixed with 50 μl of a conjugate and 50 μl of an antibody in a plate provided in the kit, and was incubated with agitation at room temperature for two hours. Then, the plate was washed with a washing buffer, and 200 μl of a pNPP solution was added thereto, followed by incubation at room temperature for one hour. Thereafter, absorbance was measured at 405 nm.

[3] = apigenin-treated right leg (+), four weeks after drug injection
[4] = apigenin-treated right leg (+), four weeks after drug injection, listed as Apigenin
[5] = apigenin-treated right leg (+), two weeks after drug injection
[6] = non-treated left leg (−) of apigenin treatment group, four weeks after drug injection
[7] = non-treated left leg (−) of apigenin treatment group, four weeks after drug injection, listed as Apigenin
[8] = non-treated left leg (−) of apigenin treatment group, two weeks after drug injection

SMILES: O=c1cc(-c2ccc(O)cc2)oc2cc(O)cc(O)c12 [apigenin, 4′,5,7-trihydroxyflavone]
- PGE2 (RAW 264.7 cells; LPS 500 ng/ml + apigenin 10 μM): 3935 pg/mL
- PGE2 (RAW 264.7 cells; LPS 500 ng/ml + apigenin 20 μM): 3918 pg/mL
- PGE2 (RAW 264.7 cells; LPS 500 ng/ml + apigenin 40 μM): 1057 pg/mL
- PGE2 (RAW 264.7 cells; LPS 500 ng/ml + apigenin 80 μM): 300 pg/mL
- COX-2 expression level (COX-2): 0%
- Collagen levels in joint synovial fluids [1, 3]: 406.56 µg/mL
- Collagen levels in joint synovial fluids [1, 4]: 406.6 ± 0.63 µg/mL
- Collagen levels in joint synovial fluids [1, 5]: 397.4 ± 0.69 µg/mL
- Collagen levels in joint synovial fluids [1, 6]: about 1019.2 μg/ml
- Collagen levels in joint synovial fluids [1, 7]: 1019.2 ± 0.79 µg/mL
- Collagen levels in joint synovial fluids [1, 8]: 749.4 ± 0.46 µg/mL
- PGE2 levels in joint synovial fluids [2, 3]: about 196.71 pg/ml
- PGE2 levels in joint synovial fluids [2, 4]: 196.71 ± 0.52 pg/mL
- PGE2 levels in joint synovial fluids [2, 5]: 183.26 ± 0.2 pg/mL
- PGE2 levels in joint synovial fluids [2, 6]: about 753.2 pg/ml
- PGE2 levels in joint synovial fluids [2, 7]: 509.2 ± 9.2 pg/mL
- PGE2 levels in joint synovial fluids [2, 8]: 543.3 ± 1.13 pg/mL
